Results as given in paper PMC12386283, “Elucidating the Complex Structural and Molecular Mechanisms Driving P-Glycoprotein-Mediated Transport of Cardiac Glycosides” (International Journal of Molecular Sciences, 2025).
Several values for one entry are separate records, joined by “and”; a condition that tells them apart may be missing. Identical values can stand only once. Like-named read-outs stand apart in the source and are kept apart here.

Experiments:
[1] = target: T1, wild-type mouse Pgp (MDR3) (Mus musculus, UniProt P21447); assay: biochemical
Experimental: (§1) Overexpression of wild-type mouse Pgp (MDR3) was achieved by using genetically engineered strains of Pichia pastoris with a 6X histidine tag. The cells were cultured in glycerol media, and methanol was used to induce the overexpression of Pgp at the Bioexpression and Fermentation Facility (BFF), University of Georgia, Athens, GA, USA. A repeated cycle of freezing using liquid nitrogen, blending, and thawing was used to lyse the Pgp-expressing P. pastoris cells. The protein was purified using affinity chromatography with nickel-nitrilotriacetic acid (Ni-NTA) resin (Thermo Fisher Scientific, Waltham, MA, USA). DDM was used to solubilize the protein, and the solution was concentrated using Amicon Ultra-15 100 kDa cut-off filters (EMD Millipore, Billerica, MA, USA). The concentration of purified protein was measured at 280 nm using a calculated extinction coefficient of 1.28 per mg mL^−1 on a Nanodrop (DeNovix, Wilmington, DE, USA). […] The purified DDM-solubilized Pgp was aliquoted and stored at −80 °C for future analysis.
(§2) Approximately 40 µL of DDM-solubilized Pgp was dialyzed for two hours against HEPES buffer (20 mM HEPES, 100 mM NaCl, 5 mM MgCl2, 2 mM DTT, pH 7.4) to remove any remnants of the detergent, DDM. The dialyzed protein was mixed with 4 mg mL^−1 of the extruded liposomes and incubated on ice for at least one hour to allow Pgp to integrate into the liposomes. To remove any additional detergent and further facilitate Pgp integration into the liposome, the solution was dialyzed for a second time for two hours in HEPES buffer to form proteoliposomes, and the concentration of Pgp reconstituted in liposomes was determined using the Bio-Rad DC Protein assay. Finally, the solution was aliquoted and stored at −80 °C for future use.
The intrinsic tryptophan residues in the protein can be selectively excited and emitted at 295 nm and 330 nm wavelengths, respectively. The binding of the drug to the protein can alter the spatial arrangement encountered by the tryptophan residue(s) and thereby regulate the fluorescence intensity of the protein [52]. […] Proteoliposomes diluted to 1 µM in Chifflet buffer containing 2 mM DTT were titrated against varying concentrations of drugs. The intrinsic protein fluorescence was measured at 330 nm upon excitation at 295 nm using an Olis DM 45 spectrophotometer (Olis Corporation, Bogart, GA, USA). To nullify the effect of Rayleigh bands on the observed spectra, a 10 nm band-pass filter was inserted on the excitation and emission paths of the spectrophotometer. The drug-induced quenching of intrinsic Pgp fluorescence was corrected (Fcorrected) for factors such as dilution, background fluorescence, and inner filter effects using the equation mentioned below (Equation (2)).(2) Fcorrected=F−B10^εexbex+εembemQ/2 where Fcorrected = Drug-induced quenching of intrinsic Pgp fluorescence; F = Emitted intrinsic Pgp fluorescence at 330 nm; [Q] = Concentration of drug; εex and εem = Excitation and emission extinction coefficients, respectively; bex and bem = Path lengths of excitation (0.4 mm) and emission (10 mm) wavelengths, respectively; and B = Background fluorescence measured from drug and solvent.
The resulting quenching curves were fit using a modified Stern-Volmer equation (Equation (3)), as follows:(3) Fcorrected=FOcorrected/1+KsvQ+Funquenched where Fcorrected = The corrected fluorescence; F0(corrected) = Fluorescence recorded in the absence of drug; [Q] = Concentration of drug; Ksv = Stern–Volmer constant; and F(unquenched) = unquenched fluorescence.

[2] = target: T1, wild-type mouse Pgp (MDR3); assay: Pgp-mediated ATPase activity (Chifflet colorimetric Pi assay, proteoliposomes)
Experimental: as §1, with “USA).” for “USA). The concentration of purified protein was measured at 280 nm using a calculated extinction coefficient of 1.28 per mg mL^−1 on a Nanodrop (DeNovix, Wilmington, DE, USA).”
Pgp was reconstituted into liposomes as previously described. Briefly, liposomes comprising 80% (w/v) Avanti Escherichia coli total lipid extract and 20% (w/v) cholesterol were dissolved in chloroform to achieve a final concentration of 10 mg mL^−1, and the volume was adjusted to 10 mL. […] The solution was subjected to ten cycles of freeze–thaw using liquid nitrogen and a water bath (67 °C), resulting in the formation of liposomes with varying sizes, and extruded eleven times in a LIPEX extruder (Northern Lipids, Burnaby, BC, Canada) to produce identical-sized liposomes, using a 400 nm cut-off filter.
as §2
The Chifflet method is a colorimetric method that measures the amount of free inorganic phosphate (Pi) through the formation of ammonium molybdate and Pi complex, which produces a strong absorbance at 850 nm. The absorbance was measured on a 96-well plate using a CLARIOstar microplate reader (BMG Labtech, Ortenberg, Germany). […] The final concentrations of the proteoliposome and ATP were maintained at 50 nM and 3.2 mM, respectively. Orthovanadate was used as a control and run in parallel to the samples. Finally, the kinetic curves for ATPase activity were fit to a modified Michaelis-Menten equation (Equation (1)). Igor 6.2 Pro software (Wavemetrics, Tigard, OR, USA) was used for data analysis.(1) V=VmaxS/Km+S+Vbasal where V = Rate of ATP hydrolysis; Vmax = Maximum velocity of ATP hydrolysis; [S] = Substrate concentration; Km = Michaelis–Menten constant; and Vbasal = basal ATPase activity.

[3] = 1 µM proteoliposome, excitation 295 nm, emission 330 nm, absence of ATP and co-factors

T1 sequence (P21447 whole entry): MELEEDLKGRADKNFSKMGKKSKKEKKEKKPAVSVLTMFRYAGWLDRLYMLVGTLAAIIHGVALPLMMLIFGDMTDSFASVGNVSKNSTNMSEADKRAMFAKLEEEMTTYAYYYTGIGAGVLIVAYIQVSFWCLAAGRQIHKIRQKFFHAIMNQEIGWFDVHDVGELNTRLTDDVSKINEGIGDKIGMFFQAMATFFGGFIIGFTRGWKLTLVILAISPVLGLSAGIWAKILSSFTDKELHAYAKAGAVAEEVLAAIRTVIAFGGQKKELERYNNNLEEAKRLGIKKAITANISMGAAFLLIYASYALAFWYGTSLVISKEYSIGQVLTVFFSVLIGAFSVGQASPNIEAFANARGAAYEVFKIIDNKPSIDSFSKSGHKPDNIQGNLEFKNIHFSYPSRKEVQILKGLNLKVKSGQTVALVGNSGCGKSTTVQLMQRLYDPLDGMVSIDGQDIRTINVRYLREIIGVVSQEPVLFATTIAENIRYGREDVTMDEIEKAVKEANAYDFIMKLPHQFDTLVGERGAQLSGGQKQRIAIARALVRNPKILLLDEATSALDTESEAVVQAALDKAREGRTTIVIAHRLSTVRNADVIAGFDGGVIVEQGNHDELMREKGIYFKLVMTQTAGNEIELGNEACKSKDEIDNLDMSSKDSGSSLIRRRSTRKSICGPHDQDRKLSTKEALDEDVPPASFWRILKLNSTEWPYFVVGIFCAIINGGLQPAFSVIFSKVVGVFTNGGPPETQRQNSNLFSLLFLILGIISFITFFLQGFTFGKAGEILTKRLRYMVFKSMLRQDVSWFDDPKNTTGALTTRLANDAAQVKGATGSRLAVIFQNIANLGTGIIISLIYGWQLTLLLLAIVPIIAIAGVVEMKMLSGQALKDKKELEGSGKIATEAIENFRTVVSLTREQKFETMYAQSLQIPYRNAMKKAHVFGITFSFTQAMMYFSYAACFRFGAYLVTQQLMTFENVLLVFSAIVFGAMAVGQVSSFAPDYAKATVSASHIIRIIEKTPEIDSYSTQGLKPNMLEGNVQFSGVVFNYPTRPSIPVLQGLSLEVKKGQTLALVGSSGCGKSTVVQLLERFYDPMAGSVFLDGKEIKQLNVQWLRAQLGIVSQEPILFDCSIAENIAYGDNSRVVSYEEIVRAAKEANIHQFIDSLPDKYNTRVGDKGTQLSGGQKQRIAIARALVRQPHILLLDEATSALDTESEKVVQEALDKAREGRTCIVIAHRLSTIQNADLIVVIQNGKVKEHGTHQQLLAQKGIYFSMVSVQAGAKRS

## C[C@]12CC[C@H](O)C[C@H]1CC[C@@H]1[C@@H]2CC[C@]2(C)[C@@H](C3=CC(=O)OC3)CC[C@]12O [Digitoxigenin, (3β,5β)-3,14-Dihydroxy-card-20(22)-enolide]
[1]
  Kd: 56.7 ± 15.6 µM
[1]; [3]
  Stern-Volmer constant (Ksv) from CG-induced tryptophan fluorescence quenching in Pgp: 0.01765 ± 0.0048 µM⁻¹
[2]; in words
  Effect on Pgp's ATPase hydrolytic activity relative to basal: induced
[2]; relative to the offset (basal activity), 37 °C, 3.2 mM ATP, 50 nM proteoliposome, modified Michaelis-Menten fit
  Vmax of CG-induced Pgp-mediated ATP hydrolysis: 216.02 ± 16.01 nmol/min/mg

## C[C@]12CC[C@H](O)C[C@H]1CC[C@@H]1[C@@H]2C[C@@H](O)[C@]2(C)[C@@H](C3=CC(=O)OC3)CC[C@]12O [Digoxigenin, 3β,12β,14-Trihydroxy-5β,20(22)-cardenolide]
[1]; [3]
  Stern-Volmer constant (Ksv) from CG-induced tryptophan fluorescence quenching in Pgp: 0.09839 ± 0.0146 µM⁻¹
[2]; in words
  Effect on Pgp's ATPase hydrolytic activity relative to basal: induced

## C[C@H]1O[C@@H](O[C@H]2[C@@H](O)C[C@H](O[C@H]3[C@@H](O)C[C@H](O[C@H]4CC[C@@]5(C)[C@H](CC[C@@H]6[C@@H]5C[C@@H](O)[C@]5(C)[C@@H](C7=CC(=O)OC7)CC[C@]65O)C4)O[C@@H]3C)O[C@@H]2C)C[C@H](O)[C@@H]1O [Digoxin]
[1]
  Kd: 6.85 ± 0.83 µM
  Stern-Volmer constant (Ksv) from CG-induced tryptophan fluorescence quenching in Pgp: 0.146 ± 0.0117 and 0.146 ± 0.0117 µM^−1
[2]
  Effect on Pgp's ATPase hydrolytic activity relative to basal: induced
  Vmax of CG-induced Pgp-mediated ATP hydrolysis: 277.53 ± 7.24 nmol min^−1 mg^−1 and 277.53 ± 7.24
